Source: paper PMC3021545, “Insulin Reduces Neuronal Excitability by Turning on GABAA Channels that Generate Tonic Current” (PLoS ONE, 2011)

System: T1, insulin-induced high-affinity extrasynaptic GABAA channels (α5, γ2 containing; α5βγ2) of CA1 pyramidal neurons
T1 construct: gene Gabra5
Settings: insulin-treated (1 nM) slices; -60 mV; ambient GABA; 20-22 °C; inverse agonist

In the case of `CCOC(=O)c1ncn2c1[C@@H]1CCCN1C(=O)c1cc(OC)ccc1-2` [L655, 708], the “% inhibition at 5 μM” value is reported as 85±4%.
